Results taken from US8343912B2, “Antibiotic compositions for the treatment of gram negative infections” (priority 2008, dated 2013).
In brackets after ≈: the same amount, converted by molar mass. Numbered stars: 1 amine (or outer) side, 2 acyl side, 3 side chain; on linkers, the order of the positions; unused ones are H or OH. Bridge positions count the residues as written; N and C are the ends. Square brackets hold non-standard residues; d marks the D form. Peptide text beside a SMILES is read from it. * marks the point of attachment. Octanoyl(6-Me) = CCC(C)CCCCC(=O)*; NH(2-ClPh) = Clc1ccccc1N*; Dab = NCC[CH](N)C(=O)O; CO = O=C([*:1])[*:2]

What was measured:
P. aeruginosa [1] = experiment: MIC, broth microdilution (Table 4); assay type: cell-based, Pseudomonas aeruginosa; details: for MIC P. aeruginosa: Table 4
Protocol: (§1) MIC testing was performed according to Clinical and Laboratory Standards Institute (CLSI) M7-A7 (2006) broth microdilution methods. Unless otherwise indicated, MIC values are provided in units of micrograms per milliliter.
(§2) One day prior to testing, individual colonies were isolated by streaking onto rich, non-selective Tryptic Soy agar with 5% lysed sheeps blood (TSAB) with incubation at 35-37° C. for 18-24 hours.
(§3) Cultures were prepared by touching 3-5 colonies into 3 mL of Cation adjusted Mueller Hinton Broth (caMHB) in a 14 mL tube (CaMHB was prepared and sterilized according to manufacturer's specifications). Cultures were grown at 37° C. 200 rpm for approximately four hours prior to density adjustment for addition to the MIC assay.
(§4) OD600 of growing cultures was measured and adjusted to approximately 10^5 colony forming units per mL (CFU/mL) in caMHB for MIC inoculation (approximately OD600 0.001).
(§5) Diluted cultures were used to inoculate 50 μL per well in broth microdilution assays (final volume 100 μl per well; compounds were prepared in two-fold dilutions).
(§6) Plates were incubated 16-20 hrs at 37° C., with shaking at 200 rpm.
(§7) OD600 was determined for all wells. Growth was defined as OD600>0.1. MICs were defined as the lowest concentration producing no visible turbidity (OD600<0.1).

P. aeruginosa [2] = experiment: MIC90, broth microdilution, panel of Gram negative clinical isolates; assay type: cell-based, Pseudomonas aeruginosa; details: 100 strains
Protocol: (§8) To evaluate the potency and spectrum of compounds of Formula (I), (i.e., Compounds designated 5 and 6), a study was conducted that put together a panel of 455 Gram negative strains, which included multi-drug resistant clinical isolates selected from various surveillance programs. Table 3A lists the strains that were included in the study and the activity of Compound 5, Compound 6, and colistin (polymyxin E, abbreviated PME). Strains with acquired resistance to colistin and/or carbapenems and/or broad spectrum cephalosporins were pre-selected and included in all organism groups evaluated.
as §1, §2, §3, §4, §5, §6, §7

K. pneumonia = experiment: as above; assay type: cell-based, Klebsiella pneumoniae; details: 81 strains; some strains multi-drug resistant
Protocol: as §8, §1, §2, §3, §4, §5, §6, §7

[3] = Cell culture cytotoxicity assay (ATP bioluminescence, LLC-PK1); assay type: cell-based, rat; details: rat; read-out: EC50, rat kidney proximal tubule cell culture cytotoxicity assay
Protocol: Day 1: 1×10^5 to 2×10^5 cellswere inoculated (Cell line: LLC-PK1) per flask, containing 4 mL/T25 flask of medium DMEM-F12 (50/50) media supplemented with 10% FBS (Fetal Bovine Serum). The cells were then incubated at 37° C., 5% CO2, 80% RH.
Day 4: The cell cultures were examined to determine 80% confluency. To trypsinize of the 80% confluent flasks, 4 mL of DMEM-F12-10% FBS media was prepared per flask. The media was aspirated from the flask and 5 mL of Versene was added to rinse the flask. The Versene was aspirated and 2 mL of triple Express solution (trypsin solution) was added. The cells were incubated for 5 min at room temperature and examined via microscopy for the rounding of the cells and their detachment. To speed up the reaction, the flask can be incubated at 37° C. for 3 minutes. 4 mL of media (DMEM-F12-10%FBS) was added to stop the reaction. Using a 5 mL pipette, the completed reaction was pipetted up and down to ensure that the cells were properly detached from the flask and from each others. The cell number was counted using a hemocytometer slide. 100 μL of cell suspension was transferred to a tube and 100 μL of Trypan Blue was added. Inoculum for 96 well is 10,000 cells per well. For one 96 well plate, 26.3 μL×110 well=2893 μL total. 2.9 mL of cell suspension was mixed with 8.1 mL of media DMEM-F12-10% FBS and 100 μL was distributed to each well using a multichannel pipetter. The plate was then Incubated for 24 h at 37° C.
Day 5: DMEM-F12 (no FBS) medium was dispensed into tubes with the test article to achieve final concentrations of […]. The 96 well plate was taken off the incubator and media was removed from each well using multichannel pipetter. 80 μL of serially diluted compounds of Formula (I) was added to each well. Every set of concentration was done in triplicate. Media and positive controls were added to each plate and the plates were incubated for 24 hours at 37° C.
Day 6: The plates were taken from the incubator, the media was removed from each well, and 100 μL of fresh media DMEM-F12 (this is equivalent to a rinse and the media can be replaced with PBS) was added. The media is then removed and 80 μL of cell lysis solution is added. After 5 minutes, 80 μL of sterile filtered high quality water was added to each well. Using a white or black 96 well reaction plate, 80 μL of 25× diluted ATP mix reagent (Sigma Bioluminescent Somatic Cell Assay Kit [cat #FL-ASC]) was added into one column. 80 μL of diluted ATP standards (dilutions used: 250, 500, 1000, 2000 and 4000) was added and the plate was read immediately in the topcount with a 2 second read time. In another white or black 96 well reaction plate, 80 μL of 25× diluted ATP mix reagent (plate A) was added and 80 μL of lysis-water solution was transferred to each column of plate A. The plate was then read immediately in the topcount with a 2 second read time. This process was repeated for next consecutive plate and the EC50 for certain compounds of Formula I were calculated and provided in Table 4.

| SMILES | fraction unbound (Serum protein binding) | MIC P. aeruginosa (P. aeruginosa [1]) | MIC90 P. aeruginosa (P. aeruginosa [2]) | MIC90 K. pneumonia (K. pneumonia) | EC50 at 24 h [3] | activity against bacteria compared with polymyxin B (P. aeruginosa [1]) |
| --- | --- | --- | --- | --- | --- | --- |
| CCC(C)CCCCC(=O)NC(CCN)C(=O)NC(C(=O)NC(CCN)C(=O)NC1CCNC(=O)C(C(C)O)NC(=O)C(CCN)NC(=O)C(CCN)NC(=O)C(CC(C)C)NC(=O)C(Cc2ccccc2)NC(=O)C(CCN)NC1=O)C(C)O (centres unmarked) [Polymyxin B, polymyxin B, reference compound] ({Octanoyl(6-Me)}-[Dab]T[Dab][Dab][Dab]FL[Dab][Dab]T; lactam 4-C; configuration not given here) | ~0.44 | 2 micrograms/ml | 2 micrograms/mL | 2 micrograms/mL | 318 µg/mL (≈ 264 µM) | – |
| CC(C)C[C@@H]1NC(=O)[C@@H](Cc2ccccc2)NC(=O)[C@H](CCN)NC(=O)[C@@H](NC(=O)[C@H](CCN)NC(=O)[C@@H](NC(=O)[C@H](CCN)NC(=O)Nc2ccccc2Cl)[C@@H](C)O)CCNC(=O)[C@H]([C@@H](C)O)NC(=O)[C@H](CCN)NC(=O)[C@H](CCN)NC1=O [Compound 5, (S)-4-amino-N-((2S,3R)-1-((S)-4-amino-1-oxo-1-((3S,6S,9S,12S,15R,18S,21S)-6,9,18-tris(2-aminoethyl)-15-benzyl-3-((R)-1-hydroxyethyl)-12-isobutyl-2,5,8,11,14,17,20-heptaoxo-1,4,7,10,13,16,19-heptaazacyclotricosan-21-ylamino)butan-2-ylamino)-3-hydroxy-1-oxobutan-2-yl)-2-(3-(2-chlorophenyl)ureido)butanamide] ({NH(2-ClPh)-CO}-[Dab]T[Dab][Dab][Dab][dF]L[Dab][Dab]T; lactam 4-C) | ~0.7 | 2 micrograms/ml | 2 micrograms/mL | 4 micrograms/mL | > 1000 µg/mL | as active or more active |
